Article PMC11950852, “Diversity Scale of Library Matters: Impact of mRNA Library Diversity Scales on the Discovery of Macrocyclic Peptides Targeting a Protein by the RaPID System” (ACS Central Science, 2025)
Where a SMILES comes first, the peptide text is derived from it. Bridges are numbered along the chain shown (N, C = ends). Where no end group is shown, it is not given here. [ ]: non-standard residue; d: D form.

T1: ectodomain of MET fused to Fc (UniProt P08581 25-932)
T1 chain: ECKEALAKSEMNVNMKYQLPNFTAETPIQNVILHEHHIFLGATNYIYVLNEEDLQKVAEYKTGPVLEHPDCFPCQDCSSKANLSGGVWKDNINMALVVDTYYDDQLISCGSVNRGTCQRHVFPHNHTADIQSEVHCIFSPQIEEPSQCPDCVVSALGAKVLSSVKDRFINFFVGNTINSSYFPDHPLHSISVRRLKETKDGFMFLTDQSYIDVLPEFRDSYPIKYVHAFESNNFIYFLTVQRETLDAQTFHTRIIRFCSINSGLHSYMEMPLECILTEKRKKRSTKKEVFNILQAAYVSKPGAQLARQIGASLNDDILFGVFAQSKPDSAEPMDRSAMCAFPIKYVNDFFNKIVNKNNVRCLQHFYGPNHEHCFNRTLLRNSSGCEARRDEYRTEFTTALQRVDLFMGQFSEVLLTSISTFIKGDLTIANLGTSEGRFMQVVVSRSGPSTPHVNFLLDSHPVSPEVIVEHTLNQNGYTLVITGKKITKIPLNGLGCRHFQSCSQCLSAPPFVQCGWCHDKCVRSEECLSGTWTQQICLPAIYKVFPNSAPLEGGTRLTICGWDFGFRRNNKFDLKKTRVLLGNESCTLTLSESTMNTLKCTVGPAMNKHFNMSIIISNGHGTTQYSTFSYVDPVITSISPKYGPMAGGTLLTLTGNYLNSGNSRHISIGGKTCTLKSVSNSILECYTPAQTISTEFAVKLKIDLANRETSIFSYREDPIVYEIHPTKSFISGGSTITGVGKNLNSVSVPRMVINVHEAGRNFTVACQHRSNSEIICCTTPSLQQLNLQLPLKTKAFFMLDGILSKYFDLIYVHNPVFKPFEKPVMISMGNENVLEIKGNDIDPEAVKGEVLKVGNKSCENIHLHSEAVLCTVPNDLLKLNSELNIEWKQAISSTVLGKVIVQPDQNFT

B1: 10–1 (peptide)
chain: {CH2CO}-YYSWSGSVSESVKWNSCG-NH2
modifications: thioether N-17
SMILES: CC(C)[C@@H]1NC(=O)[C@H](CO)NC(=O)CNC(=O)[C@H](CO)NC(=O)[C@H](Cc2c[nH]c3ccccc23)NC(=O)[C@H](CO)NC(=O)[C@H](Cc2ccc(O)cc2)NC(=O)[C@H](Cc2ccc(O)cc2)NC(=O)CSC[C@@H](C(=O)NCC(N)=O)NC(=O)[C@H](CO)NC(=O)[C@H](CC(N)=O)NC(=O)[C@H](Cc2c[nH]c3ccccc23)NC(=O)[C@H](CCCCN)NC(=O)[C@H](C(C)C)NC(=O)[C@H](CO)NC(=O)[C@H](CCC(=O)O)NC(=O)[C@H](CO)NC1=O
B2: 12–2 (peptide)
chain: {CH2CO}-YYSWSGNVSESVKWNSCG-NH2
modifications: thioether N-17
SMILES: CC(C)[C@@H]1NC(=O)[C@H](CC(N)=O)NC(=O)CNC(=O)[C@H](CO)NC(=O)[C@H](Cc2c[nH]c3ccccc23)NC(=O)[C@H](CO)NC(=O)[C@H](Cc2ccc(O)cc2)NC(=O)[C@H](Cc2ccc(O)cc2)NC(=O)CSC[C@@H](C(=O)NCC(N)=O)NC(=O)[C@H](CO)NC(=O)[C@H](CC(N)=O)NC(=O)[C@H](Cc2c[nH]c3ccccc23)NC(=O)[C@H](CCCCN)NC(=O)[C@H](C(C)C)NC(=O)[C@H](CO)NC(=O)[C@H](CCC(=O)O)NC(=O)[C@H](CO)NC1=O
B3: 8–2 (peptide)
chain: {CH2CO}-YYHWNGRDGDKVEWVVCG-NH2
modifications: thioether N-17
SMILES: CC(C)[C@@H]1NC(=O)[C@H](CCCCN)NC(=O)[C@H](CC(=O)O)NC(=O)CNC(=O)[C@H](CC(=O)O)NC(=O)[C@H](CCCNC(=N)N)NC(=O)CNC(=O)[C@H](CC(N)=O)NC(=O)[C@H](Cc2c[nH]c3ccccc23)NC(=O)[C@H](Cc2c[nH]cn2)NC(=O)[C@H](Cc2ccc(O)cc2)NC(=O)[C@H](Cc2ccc(O)cc2)NC(=O)CSC[C@@H](C(=O)NCC(N)=O)NC(=O)[C@H](C(C)C)NC(=O)[C@H](C(C)C)NC(=O)[C@H](Cc2c[nH]c3ccccc23)NC(=O)[C@H](CCC(=O)O)NC1=O

How the values were obtained:
[1] = target: Fc-fused MET (His-/hFc-tagged human MET ectodomain) (Homo sapiens, UniProt P08581); assay: SPR binding kinetics of selected macrocyclic peptides to Fc-fused MET; conditions: for kon: pH 7.4, read-out: ka
Description: The binding kinetic constants (ka and kd) and dissociation constant (KD) of each macrocyclic peptide were determined by surface plasmon resonance, SPR (Table 1, Figure S8).
Binding kinetics analysis of peptides by SPR
The binding affinities of selected peptides targeting Fc-fused MET were analyzed by SPR using a Biacore
8K instrument (Cytiva) at 25 °C. The composition of the running buffer was HBS EP+ buffer (10 mM
HEPES pH 7.4, 150 mM NaCl, 3 mM EDTA, and 0.05% (v/v) Surfactant P20) containing 0.1% DMSO.
The target protein, Fc-fused MET, was immobilized on a Biacore sensor chip ProteinG (Cytiva) to 1,500–
2,000 response units. The kinetic constants were determined by a single-cycle kinetics analysis by injecting
five different concentrations (two-fold dilution series) of each peptide at the flow rate of 30 μL min–1.
Binding sensorgrams were fitted using the standard 1:1 interaction model and analyzed using Biacore™
Insight Software (Figure S8) .

[2] = target: T1, ectodomain of MET fused to Fc; assay: SPR
[3] = target: T2, ectodomain of MET fused to Fc (UniProt P08581 25-932); assay: SPR; fitted by a 1:1 binding model; who was immobilised and the conditions are in the Supporting Information (not shown); conditions: both partners purified
T2 construct: MET (hepatocyte growth factor receptor), a receptor tyrosine kinase; also called MET-Fc; Fc-tagged MET

Molecule	kd ([1]; SPR conditions as E1) [s⁻¹]	kon [1] [M⁻¹ s⁻¹]	koff [2] [s⁻¹]	koff [3] [s⁻¹]	further results
CC[C@H](C)[C@@H]1NC(=O)[C@H](CCCCN)NC(=O)[C@@H](NC(=O)[C@H](CCC(=O)O)NC(=O)[C@@H](NC(=O)[C@H](Cc2c[nH]c3ccccc23)NC(=O)[C@H](CC(C)C)NC(=O)[C@@H]2CSCC(=O)N[C@@H](Cc3ccc(O)cc3)C(=O)N[C@@H](CC(N)=O)C(=O)N2)C(C)C)CSSC[C@@H](C(=O)NCC(N)=O)NC(=O)[C@H](CCCNC(=N)N)NC(=O)CNC(=O)[C@H](CC(N)=O)NC(=O)[C@@H]2CCCN2C(=O)[C@H](CC(C)C)NC(=O)[C@H](C(C)C)NC1=O [12-4] ({CH2CO}-YNCLWVECKIVLPNGRCG-NH2; disulfide 8-17; thioether N-3)	0.00721	456000			kd (quoted in text) ([1]; SPR conditions as E1): 7.21 × 10^–3 s^–1
CC[C@H](C)[C@@H]1NC(=O)[C@H](C(C)C)NC(=O)[C@H](CO)NC(=O)[C@H](CC(=O)O)NC(=O)[C@H](C(C)C)NC(=O)[C@H](CC(=O)O)NC(=O)[C@H](CCCCN)NC(=O)CNC(=O)[C@H](CO)NC(=O)[C@H](Cc2c[nH]c3ccccc23)NC(=O)[C@H](CO)NC(=O)[C@H](Cc2ccc(O)cc2)NC(=O)[C@H](Cc2ccc(O)cc2)NC(=O)CSC[C@@H](C(=O)NCC(N)=O)NC(=O)[C@H](CC(N)=O)NC(=O)[C@H](CC(N)=O)NC(=O)[C@H](Cc2c[nH]c3ccccc23)NC1=O [14-2] ({CH2CO}-YYSWSGKDVDSVIWNNCG-NH2; thioether N-17)	0.00182	464000			
CC[C@H](C)[C@@H]1NC(=O)[C@H](Cc2ccc(O)cc2)NC(=O)CSC[C@@H](C(=O)NCC(N)=O)NC(=O)[C@H](CCCNC(=N)N)NC(=O)[C@H](C(C)C)NC(=O)[C@H](Cc2ccc(O)cc2)NC(=O)[C@H](C(C)C)NC(=O)[C@H](Cc2c[nH]c3ccccc23)NC(=O)[C@H](CO)NC(=O)[C@H](CCCCN)NC(=O)[C@H](CO)NC(=O)[C@H](CC(=O)O)NC(=O)[C@H](Cc2ccc(O)cc2)NC(=O)[C@H](C(C)C)NC(=O)[C@H](Cc2ccc(O)cc2)NC(=O)[C@H](Cc2c[nH]c3ccccc23)NC(=O)[C@H](CCC(=O)O)NC1=O [14-6] ({CH2CO}-YIEWYVYDSKSWVYVRCG-NH2; thioether N-17)	0.00564	179000			
CC[C@H](C)[C@@H]1NC(=O)[C@H](C(C)C)NC(=O)[C@H](Cc2c[nH]c3ccccc23)NC(=O)[C@H](CC(=O)O)NC(=O)[C@H](CO)NC(=O)[C@H](CO)NC(=O)[C@H](CC(=O)O)NC(=O)[C@H](Cc2ccc(O)cc2)NC(=O)[C@H](Cc2ccc(O)cc2)NC(=O)[C@H](CCCCN)NC(=O)[C@H](Cc2c[nH]c3ccccc23)NC(=O)[C@H](CO)NC(=O)[C@H](CC(C)C)NC(=O)[C@H](Cc2ccc(O)cc2)NC(=O)CSC[C@@H](C(=O)NCC(N)=O)NC(=O)[C@H](CO)NC(=O)[C@H](CC(C)C)NC1=O [14-5] ({CH2CO}-YLSWKYYDSSDWVILSCG-NH2; thioether N-17)	0.00836	129000			
CC[C@H](C)[C@@H]1NC(=O)[C@H](Cc2ccc(O)cc2)NC(=O)CSC[C@@H](C(=O)NCC(N)=O)NC(=O)[C@H](CS)NC(=O)[C@H](CC(N)=O)NC(=O)[C@H](CS)NC(=O)[C@H](CC(N)=O)NC(=O)[C@H](Cc2c[nH]c3ccccc23)NC(=O)[C@H](CC(C)C)NC(=O)[C@H](CCCCN)NC(=O)[C@H](CO)NC(=O)[C@H](CC(N)=O)NC(=O)[C@H](Cc2ccccc2)NC(=O)[C@H](CCCNC(=N)N)NC(=O)[C@H](CC(N)=O)NC(=O)[C@H](Cc2c[nH]c3ccccc23)NC(=O)[C@H](CCC(=O)O)NC1=O [10-4] ({CH2CO}-YIEWNRFNSKLWNCNCCG-NH2; thioether N-17)	0.00809	26300			
CC(C)[C@@H]1NC(=O)[C@H](C)NC(=O)[C@H](CC(=O)O)NC(=O)[C@H](Cc2ccccc2)NC(=O)[C@H](CC(=O)O)NC(=O)[C@H](CCCNC(=N)N)NC(=O)CNC(=O)[C@H]([C@@H](C)O)NC(=O)[C@H](Cc2c[nH]c3ccccc23)NC(=O)[C@H](CO)NC(=O)[C@H](Cc2ccc(O)cc2)NC(=O)[C@H](Cc2ccc(O)cc2)NC(=O)CSC[C@@H](C(=O)NCC(N)=O)NC(=O)[C@H](CCCCN)NC(=O)[C@H](CC(N)=O)NC(=O)[C@H](Cc2c[nH]c3ccccc23)NC(=O)[C@H](CCCCN)NC1=O [14-4] ({CH2CO}-YYSWTGRDFDAVKWNKCG-NH2; thioether N-17)	0.00198	798000			
CC(C)C[C@@H]1NC(=O)[C@H](CO)NC(=O)[C@H](Cc2ccccc2)NC(=O)[C@H](Cc2ccc(O)cc2)NC(=O)[C@H](Cc2c[nH]c3ccccc23)NC(=O)[C@H](CCCCN)NC(=O)[C@H](CCCCN)NC(=O)[C@H](CO)NC(=O)[C@H](CC(=O)O)NC(=O)[C@H](Cc2ccc(O)cc2)NC(=O)[C@H](CCC(=O)O)NC(=O)[C@H](Cc2c[nH]cn2)NC(=O)[C@H](Cc2c[nH]c3ccccc23)NC(=O)[C@H](C(C)C)NC(=O)[C@H](CC(C)C)NC(=O)[C@H](Cc2ccc(O)cc2)NC(=O)CSC[C@@H](C(=O)NCC(N)=O)NC1=O [12-5] ({CH2CO}-YLVWHEYDSKKWYFSLCG-NH2; thioether N-17)	0.002	130000			
{CH2CO}-YIEWNRFNSKLWNCNCCG (thioether N-17; cysteine pairing not given here) [10–4]			0.00809		
B1			0.00878	~0.01	
{CH2CO}-YWWYYWYRDEYLWRTRCG (thioether N-17 (inferred)) [10–6]			0.00489		
{CH2CO}-[dY]RQFNRRTHEVWNLDCG (thioether N-16 (inferred)) [aMD4]			0.00676		Kd [3]: 3.7 nM
B2			0.00413		
{CH2CO}-YWYYTFDGRWEEYDAACG (thioether N-17 (inferred)) [8–3]				0.0464	Kd [3]: 199 nM
B3				0.0103	
{CH2CO}-YSWYLNWQAQWKKFEFCG (thioether N-17 (inferred)) [6–1]				0.0518	
{CH2CO}-YWYYTFDGRWKEYGAACG (thioether N-17 (inferred)) [8–1]				0.0427	
